US20250144067A1, “PERSONALIZED STARVATION THERAPY FOR CANCER” (Faeth Therapeutics, Inc., priority 2021, published 2025)
Counter-ions that a name gives are not always drawn.

Columns and labels:
[1] = test system: NCI-H292 lung cancer cells; experiment: FDA drug screening, complete media vs cholesterol-free media without statin (TABLE 1); format: cell-based, human; conditions: for Difference: about 0 neutral
[2] = test system: NCI-H292 lung cancer cells; experiment: FDA drug screening, complete media vs cholesterol-free media with simvastatin (TABLE 2); format: cell-based, human; conditions: for Cholesterol-free media + simvastatin (0.04 μM) / Complete Media: NCI-H292 cells; for Difference: >0 enhanced anti-cancer activity, about 0 neutral, <0 antagonist
[3] = Complete minus Cholesterol-free, >0 enhanced anti-cancer activity, <0 antagonist
[4] = NCI-H292 cells, cholesterol-free media without statin, FDA drug library screen
[5] = NCI-H292 cells, complete media, FDA drug library screen
[6] = cholesterol-free media with simvastatin 0.04 μM, cell growth value in FDA drug screen
[7] = complete media, cell growth value in FDA drug screen
[8] = complete media minus cholesterol-free media + simvastatin
[9] = cholesterol-free media with simvastatin 0.04 μM, FDA drug library screen (TABLE 2)
[10] = complete media, FDA drug library screen (TABLE 2)
[11] = complete media minus cholesterol-free media + simvastatin (0.04 μM)
[12] = NCI-H292 cells, cholesterol-free media without statin
[13] = Complete minus Cholesterol-free, greater than 0 enhanced anti-cancer activity, below 0 antagonist
[14] = NCI-H292 cells, FDA drug library screen, cholesterol-free media without statin
[15] = NCI-H292 cells, FDA drug library screen, complete media
[16] = FDA library drug in cholesterol-free media with simvastatin 0.04 μM
[17] = FDA library drug in complete media
[18] = complete media vs cholesterol-free media + simvastatin (0.04 μM)
[19] = complete vs cholesterol-free media, >0 enhanced anti-cancer activity, <0 antagonist
[20] = drug in cholesterol-free media with simvastatin 0.04 μM
[21] = Complete minus Cholesterol-free, greater than 0 enhanced anti-cancer activity, below 0 antagonists
[22] = NCI-H292 cells in cholesterol-free media without statin
[23] = NCI-H292 cells in complete media
[24] = FDA drug library screen, cholesterol-free media with simvastatin 0.04 μM
[25] = FDA drug library screen, complete media
[26] = complete vs cholesterol-free media, greater than 0 enhanced anti-cancer activity, below 0 antagonists

C#Cc1cccc(Nc2ncnc3cc4c(cc23)OCCOCCOCCO4)c1 [Icotinib]
Difference [1, 3]: −0.05
Cholesterol-free [1, 4]: 0.4295
Complete [1, 5]: 0.3774
Cholesterol-free media + simvastatin (0.04 μM) [2, 6]: 0.6476
Complete Media [2, 7]: 0.6925
Difference [2, 8]: 0.04

CC(=O)[C@]1(O)Cc2c(O)c3c(c(O)c2[C@@H](O[C@H]2C[C@H](N)[C@H](O)[C@H](C)O2)C1)C(=O)c1ccccc1C3=O [Idarubicin (hydrochloride)]
Difference [1, 3]: −0.01
Cholesterol-free [1, 4]: −0.02296
Complete [1, 5]: −0.02941
Cholesterol-free media + simvastatin (0.04 μM) [2, 9]: 0.008408
Complete Media [2, 10]: 0.002721
Difference [2, 11]: −0.01

COC1=C(OC)C(=O)C(CCCCCCCCCCO)=C(C)C1=O [Idebenone]
Difference [1, 3]: −0.21
Cholesterol-free [1, 12]: 1.239
Complete ([1]; NCI-H292 cells, complete media): 1.029
Cholesterol-free media + simvastatin (0.04 μM) [2, 6]: 1.049
Complete Media [2, 7]: 1.125
Difference [2, 8]: 0.08

CC[C@H](Nc1ncnc2[nH]cnc12)c1nc2cccc(F)c2c(=O)n1-c1ccccc1 [Idelalisib]
Difference [1, 13]: −0.13
Cholesterol-free [1, 14]: 1.096
Complete [1, 15]: 0.9672
Cholesterol-free media + simvastatin (0.04 μM) [2, 16]: 1.507
Complete Media [2, 17]: 1.219
Difference [2, 18]: −0.29

O=c1[nH]c(=O)n([C@H]2C[C@H](O)[C@@H](CO)O2)cc1I [Idoxuridine]
Cholesterol-free [1, 4]: 0.8751
Complete [1, 5]: 1.387
Difference [1, 19]: 0.51
Cholesterol-free media + simvastatin (0.04 μM) [2, 20]: 1.124
Complete Media ([2]; drug in complete media): 0.9636
Difference [2, 18]: −0.16

O=C1C2CC3CC1CC(O)(C3)C2 [Idramantone]
Difference [1, 21]: −0.71
Cholesterol-free [1, 22]: 1.638
Complete [1, 23]: 0.9237
Cholesterol-free media + simvastatin (0.04 μM) [2, 24]: 1.208
Complete Media [2, 25]: 1.085
Difference [2, 18]: −0.12

CS(=O)(=O)Nc1cc2occ(NC=O)c(=O)c2cc1Oc1ccccc1 [Iguratimod]
Cholesterol-free [1, 12]: 1.252
Complete ([1]; NCI-H292 cells, complete media): 0.9044
Difference [1, 26]: −0.35
Cholesterol-free media + simvastatin (0.04 μM) [2, 16]: 1.717
Complete Media [2, 17]: 1.252
Difference [2, 18]: −0.47

COc1ccnc(C[S+]([O-])c2nc3cc(-n4cccc4)ccc3[nH]2)c1C (centres unmarked) [Ilaprazole (sodium)]
Cholesterol-free [1, 12]: 1.162
Complete ([1]; NCI-H292 cells, complete media): 0.7783
Difference [1, 26]: −0.38
Cholesterol-free media + simvastatin (0.04 μM) [2, 6]: 1.333
Complete Media [2, 7]: 1.428
Difference [2, 8]: 0.10

COc1ccnc(C[S+]([O-])c2nc3cc(-n4cccc4)ccc3[nH]2)c1C (centres unmarked) [Ilaprazole]
Difference [1, 13]: −0.14
Cholesterol-free [1, 14]: 1.326
Complete [1, 15]: 1.19
Cholesterol-free media + simvastatin (0.04 μM) [2, 16]: 1.567
Complete Media [2, 17]: 1.084
Difference [2, 18]: −0.48

COc1cc(C(C)=O)ccc1OCCCN1CCC(c2noc3cc(F)ccc23)CC1 [Iloperidone]
Difference [1, 3]: −0.06
Complete [1, 5]: 0.8863
Cholesterol-free media + simvastatin (0.04 μM) [2, 24]: 0.9523
Complete Media [2, 25]: 1.134
Difference [2, 8]: 0.18

CC#CCC(C)[C@H](O)/C=C/[C@@H]1[C@H]2C/C(=C/CCCC(=O)O)C[C@H]2C[C@H]1O (some centres unmarked) [Iloprost]
Difference [1, 21]: −0.58
Cholesterol-free [1, 22]: 1.473
Complete [1, 23]: 0.8944
Cholesterol-free media + simvastatin (0.04 μM) [2, 20]: 1.189
Complete Media ([2]; drug in complete media): 0.9963
Difference [2, 18]: −0.19

Cc1ccc(NC(=O)c2ccc(CN3CCN(C)CC3)cc2)cc1Nc1nccc(-c2cccnc2)n1 [Imatinib]
Cholesterol-free [1, 12]: 1.28
Complete ([1]; NCI-H292 cells, complete media): 0.9175
Difference [1, 26]: −0.36
Cholesterol-free media + simvastatin (0.04 μM) [2, 9]: 1.214
Complete Media [2, 10]: 1.199
Difference [2, 11]: −0.01

Cc1nccn1CCC(C(N)=O)(c1ccccc1)c1ccccc1 [Imidafenacin]
Cholesterol-free [1, 4]: 0.8368
Complete [1, 5]: 1.001
Difference [1, 19]: 0.16
Cholesterol-free media + simvastatin (0.04 μM) [2, 9]: 1.409
Complete Media [2, 10]: 1.383
Difference [2, 11]: −0.03

CCOC(=O)[C@H](CCc1ccccc1)N[C@@H](C)C(=O)N1C(=O)N(C)C[C@H]1C(=O)O [Imidapril (hydrochloride)]
Cholesterol-free [1, 4]: 0.9489
Complete [1, 5]: 1.458
Difference [1, 19]: 0.51
Cholesterol-free media + simvastatin (0.04 μM) [2, 16]: 1.282
Complete Media [2, 17]: 0.8523
Difference [2, 18]: −0.43

C[C@@H](O)[C@H]1C(=O)N2C(C(=O)O)=C(SCCN=CN)C[C@H]12 [Imipenem monohydrate]
Difference [1, 3]: −0.03
Cholesterol-free [1, 4]: 1.1
Complete [1, 5]: 1.066
Cholesterol-free media + simvastatin (0.04 μM) [2, 9]: 0.9916
Complete Media [2, 10]: 0.9548
Difference [2, 11]: −0.04
